Measurements taken from US20250215013A1, “SUBSTITUTED TRICYCLIC COMPOUNDS AS PARP INHIBITORS AND THE USE THEREOF” (IMPACT THERAPEUTICS (SHANGHAI), INC., priority 2022, published 2025).
pIC50: −log10 of the molar value.

Legend:
[1] = target: recombinant poly(ADP-ribose) polymerase 1 (PARP1) (Homo sapiens (Human), UniProt P09874)
[2] = tested on: MDA-MB-436 cells; experiment: Growth inhibition assay against BRCA mutant human breast cancer MDA-MB-436 cell line (CCK-8); assay type: cell-based; details: proliferation of MDA-MB-436 cells, 7 days
[3] = target: recombinant poly(ADP-ribose) polymerase 2 (PARP2); experiment: PARP2 chemiluminescent assay; assay type: biochemical; details: inhibition of PARP2 enzyme activity, chemiluminescence

Chain of recombinant poly(ADP-ribose) polymerase 1 (PARP1) (P09874 whole entry): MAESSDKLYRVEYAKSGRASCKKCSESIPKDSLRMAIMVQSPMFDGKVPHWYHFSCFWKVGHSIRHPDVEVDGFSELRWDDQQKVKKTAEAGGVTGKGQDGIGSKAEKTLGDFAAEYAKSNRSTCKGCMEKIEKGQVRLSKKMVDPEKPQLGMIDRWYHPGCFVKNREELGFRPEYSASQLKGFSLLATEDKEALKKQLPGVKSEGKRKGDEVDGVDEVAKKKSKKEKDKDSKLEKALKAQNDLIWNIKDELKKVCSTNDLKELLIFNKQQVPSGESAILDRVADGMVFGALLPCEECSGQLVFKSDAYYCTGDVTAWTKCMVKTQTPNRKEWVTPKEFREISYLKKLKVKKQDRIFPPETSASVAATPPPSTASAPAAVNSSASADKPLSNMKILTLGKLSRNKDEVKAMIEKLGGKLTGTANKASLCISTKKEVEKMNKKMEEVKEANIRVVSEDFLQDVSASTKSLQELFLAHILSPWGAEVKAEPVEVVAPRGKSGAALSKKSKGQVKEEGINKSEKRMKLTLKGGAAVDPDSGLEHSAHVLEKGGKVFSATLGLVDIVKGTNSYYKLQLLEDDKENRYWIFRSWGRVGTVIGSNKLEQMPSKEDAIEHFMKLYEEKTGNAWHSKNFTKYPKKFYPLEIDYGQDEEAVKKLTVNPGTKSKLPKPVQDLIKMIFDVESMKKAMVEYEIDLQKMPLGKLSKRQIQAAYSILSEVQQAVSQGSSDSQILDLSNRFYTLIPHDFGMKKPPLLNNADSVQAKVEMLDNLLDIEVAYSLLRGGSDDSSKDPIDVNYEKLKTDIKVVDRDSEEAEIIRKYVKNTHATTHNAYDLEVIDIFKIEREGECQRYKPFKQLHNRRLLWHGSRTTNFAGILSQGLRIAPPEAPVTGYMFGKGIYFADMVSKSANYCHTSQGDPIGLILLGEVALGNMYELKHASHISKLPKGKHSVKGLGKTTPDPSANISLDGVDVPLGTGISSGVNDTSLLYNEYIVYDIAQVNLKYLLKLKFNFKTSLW

SMILES	pIC50 ([2]; Homo sapiens, MDA-MB-436, […])	also measured
CNC(=O)c1ccc(N2CCN(Cc3ccc4c(c3)[nH]c(=O)c3cn(C)nc34)CC2)c(C)n1 [Example 9, 7-((4-(2-methyl-6-(methylcarbamoyl)pyridin-3-yl)piperazin-1-yl)methyl)-2-methyl-2,5-dihydro-4H-pyrazolo[4,3-c]quinolin-4-one]	8.49	pIC50 [1]: 8.61; IC50 [3]: 3280 nM
CNC(=O)c1ccc(N2CCN(Cc3ccc4c(c3)[nH]c(=O)c3[nH]ccc34)CC2)c(C)n1 [Example 10, 7-((4-(2-methyl-6-(methylcarbamoyl)pyridin-3-yl)piperazin-1-yl)methyl)-3,5-dihydro-4H-pyrrolo[2,3-c]quinolin-4-one]	7.81	pIC50 [1]: 8.08; IC50 [3]: > 10000 nM
CNC(=O)c1ccc(N2CCN(Cc3ccc4c(c3)[nH]c(=O)c3ncoc34)CC2)c(C)n1 [Example 12, 7-((4-(2-methyl-6-(methylcarbamoyl)pyridin-3-yl)piperazin-1-yl)methyl)oxazolo[4,5-c]quinolin-4(5H)-one]	8.94	pIC50 [1]: 8.95; IC50 [3]: 6370 nM
CNC(=O)c1ccc(N2CCN(Cc3ccc4c(c3)[nH]c(=O)c3ocnc34)CC2)c(C)n1 [Example 14, 7-((4-(2-methyl-6-(methylcarbamoyl)pyridin-3-yl)piperazin-1-yl)methyl)oxazolo[5,4-c]quinolin-4(5H)-one]	7.67	pIC50 [1]: 8.73; IC50 [3]: > 10000 nM
CNC(=O)c1ccc(N2CCN(Cc3ccc4c([nH]c(=O)c5occc54)c3F)CC2)cn1 [Example 148, 6-fluoro-7-((4-(6-(methylcarbamoyl)pyridin-3-yl)piperazin-1-yl)methyl)furo[2,3-c]quinolin-4(5H)-one]	7.53	
CNC(=O)c1ccc(N2CCN(Cc3ccc4c([nH]c(=O)c5cocc54)c3F)CC2)cn1 [Example 149, 6-fluoro-7-((4-(6-(methylcarbamoyl)pyridin-3-yl)piperazin-1-yl)methyl)furo[3,4-c]quinolin-4(5H)-one]	7.13	
CNC(=O)c1ccc(N2CCN(Cc3ccc4c([nH]c(=O)c5ccoc54)c3F)CC2)cn1 [Example 150, 6-fluoro-7-((4-(6-(methylcarbamoyl)pyridin-3-yl)piperazin-1-yl)methyl)furo[3,2-c]quinolin-4(5H)-one]	7.94	
CNC(=O)c1ccc(N2CCN(Cc3ccc4c([nH]c(=O)c5c(C)cnn54)c3F)CC2)cn1 [Example 153, 6-fluoro-3-methyl-7-((4-(6-(methylcarbamoyl)pyridin-3-yl)piperazin-1-yl)methyl)pyrazolo[1,5-a]quinoxalin-4(5H)-one]	7.63	
CNC(=O)c1ccc(N2CCN(Cc3ccc4c([nH]c(=O)c5c(C)cnn54)c3F)CC2)c(F)c1 [Example 154, 6-fluoro-7-((4-(2-fluoro-4-(methylcarbamoyl)phenyl)piperazin-1-yl)methyl)-3-methylpyrazolo[1,5-a]quinoxalin-4(5H)-one]	7.02	
CNC(=O)c1ccc(N2CCN(Cc3ccc4c([nH]c(=O)c5c(C)cnn54)c3F)CC2)c(Cl)c1 [Example 155, 6-fluoro-7-((4-(2-chloro-4-(methylcarbamoyl)phenyl)piperazin-1-yl)methyl)-3-methylpyrazolo[1,5-a]quinoxalin-4(5H)-one]	7.18	
Cc1cnn2c1c(=O)[nH]c1c(F)c(CN3CCN(c4ccc(C(=O)N[C@@H]5CCOC5)nc4F)CC3)ccc12 [Example 156, (R)-6-fluoro-7-((4-(2-fluoro-6-((tetrahydrofuran-3-yl)carbamoyl)pyridin-3-yl)piperazin-1-yl)methyl)-3-methylpyrazolo[1,5-a]quinoxalin-4(5H)-one]	8.22	
CNc1nccc2cc(N3CCN(Cc4ccc5c([nH]c(=O)c6c(C)cnn65)c4F)CC3)cnc12 [Example 157, 6-fluoro-3-methyl-7-((4-(8-(methylamino)-1,7-naphthyridin-3-yl)piperazin-1-yl)methyl)pyrazolo[1,5-a]quinoxalin-4(5H)-one]	7.37	
Cc1cnn2c1c(=O)[nH]c1c(F)c(CN3CCN(c4ccc(-c5ncc[nH]5)nc4)CC3)ccc12 [Example 158, 7-((4-(6-(1H-imidazol-2-yl)pyridin-3-yl)piperazin-1-yl)methyl)-6-fluoro-3-methylpyrazolo[1,5-a]quinoxalin-4(5H)-one]	7.01	
CNC(=O)c1ccc(N2CCN(Cc3ccc4c([nH]c(=O)c5c(C)cnn54)c3F)CC2)c(C2CC2)n1 [Example 160, 7-((4-(2-cyclopropyl-6-(methylcarbamoyl)pyridin-3-yl)piperazin-1-yl)methyl)-6-fluoro-3-methylpyrazolo[1,5-a]quinoxalin-4(5H)-one]	< 7.00	
CNC(=O)c1ccc(N2CCN(Cc3ccc4c([nH]c(=O)c5c(C)cnn54)c3F)CC2)cc1F [Example 161, 6-fluoro-7-((4-(3-fluoro-4-(methylcarbamoyl)phenyl)piperazin-1-yl)methyl)-3-methylpyrazolo[1,5-a]quinoxalin-4(5H)-one]	< 7.00	
CNC(=O)c1ccc(N2CCN(Cc3ccc4c([nH]c(=O)c5c(C)cnn54)c3F)CC2)c(C)c1 [Example 162, 6-fluoro-7-((4-(2-methyl-4-(methylcarbamoyl)phenyl)piperazin-1-yl)methyl)-3-methylpyrazolo[1,5-a]quinoxalin-4(5H)-one]	7.70	
Cc1cnn2c1c(=O)[nH]c1c(F)c(CN3CCN(c4ccc(C#N)nc4F)CC3)ccc12 [Example 164, 6-fluoro-7-((4-(2-fluoro-6-cyanopyridin-3-yl)piperazin-1-yl)methyl)-3-methylpyrazolo[1,5-a]quinoxalin-4(5H)-one]	7.15	
CNC(=O)c1ccc(N2CCN(Cc3cc4[nH]c(=O)c5c(C)cnn5c4cc3F)CC2)c(C)n1 [Example 169, 8-fluoro-7-((4-(2-methyl-6-(methylcarbamoyl)pyridin-3-yl)piperazin-1-yl)methyl)-3-methylpyrazolo[1,5-a]quinoxalin-4(5H)-one]	7.69	
CNC(=O)c1ccc(N2CCN(Cc3cc4[nH]c(=O)c5c(C)cnn5c4cc3F)CC2)c(Cl)n1 [Example 170, 8-fluoro-7-((4-(2-chloro-6-(methylcarbamoyl)pyridin-3-yl)piperazin-1-yl)methyl)-3-methylpyrazolo[1,5-a]quinoxalin-4(5H)-one]	7.73	
CNC(=O)c1ccc(N2CCN(Cc3ccc4c([nH]c(=O)c5c(C)cnn54)c3C)CC2)c(F)n1 [Example 171, 7-((4-(2-fluoro-6-(methylcarbamoyl)pyridin-3-yl)piperazin-1-yl)methyl)-3,6-dimethylpyrazolo[1,5-a]quinoxalin-4(5H)-one]	7.84	
CNC(=O)c1ccc(N2CCN(Cc3ccc4c([nH]c(=O)c5c(C)cnn54)c3C)CC2)c(C)n1 [Example 172, 7-((4-(2-methyl-6-(methylcarbamoyl)pyridin-3-yl)piperazin-1-yl)methyl)-3,6-dimethylpyrazolo[1,5-a]quinoxalin-4(5H)-one]	7.37	
CNC(=O)c1ccc(N2CCN(Cc3ccc4c([nH]c(=O)c5c(C)cnn54)c3C)CC2)c(Cl)n1 [Example 173, 7-((4-(2-chloro-6-(methylcarbamoyl)pyridin-3-yl)piperazin-1-yl)methyl)-3,6-dimethylpyrazolo[1,5-a]quinoxalin-4(5H)-one]	7.63	
CNC(=O)c1ccc(N2CCN(Cc3ccc4c([nH]c(=O)c5c(C)cnn54)c3Cl)CC2)c(F)n1 [Example 174, 6-chloro-7-((4-(2-fluoro-6-(methylcarbamoyl)pyridin-3-yl)piperazin-1-yl)methyl)-3-methylpyrazolo[1,5-a]quinoxalin-4(5H)-one]	7.33	
CNC(=O)c1ccc(N2CCN(Cc3ccc4c([nH]c(=O)c5c(C)cnn54)c3Cl)CC2)c(C)n1 [Example 175, 6-chloro-7-((4-(2-methyl-6-(methylcarbamoyl)pyridin-3-yl)piperazin-1-yl)methyl)-3-methylpyrazolo[1,5-a]quinoxalin-4(5H)-one]	< 7.00	
CNC(=O)c1ccc(N2CCN(Cc3ccc4c([nH]c(=O)c5c(C)cnn54)c3Cl)CC2)c(Cl)n1 [Example 176, 6-chloro-7-((4-(2-chloro-6-(methylcarbamoyl)pyridin-3-yl)piperazin-1-yl)methyl)-3-methylpyrazolo[1,5-a]quinoxalin-4(5H)-one]	< 7.00	
CNC(=O)c1ccc(N2CCN(Cc3ccc4c([nH]c(=O)c5c(F)cnn54)c3F)CC2)c(F)n1 [Example 188, 7-((4-(2-fluoro-6-(methylcarbamoyl)pyridin-3-yl)piperazin-1-yl)methyl)-3,6-difluoropyrazolo[1,5-a]quinoxalin-4(5H)-one]		pIC50 [2]: 8.28
CNC(=O)c1ccc(N2CCN(Cc3ccc4c([nH]c(=O)c5c(F)cnn54)c3Cl)CC2)c(C)n1 [Example 193, 3-fluoro-7-((4-(2-methyl-6-(methylcarbamoyl)pyridin-3-yl)piperazin-1-yl)methyl)-6-chloropyrazolo[1,5-a]quinoxalin-4(5H)-one]	7.40	
N#Cc1ccc(N2CCN(Cc3ccc4c([nH]c(=O)c5c(F)cnn54)c3F)CC2)c(F)n1 [Example 195, 7-((4-(2-fluoro-6-cyanopyridin-3-yl)piperazin-1-yl)methyl)-3,6-difluoropyrazolo[1,5-a]quinoxalin-4(5H)-one]	8.07	
CNC(=O)c1ccc(N2CCN(Cc3ccc4c([nH]c(=O)c5c(F)cnn54)c3F)C[C@H]2C)c(F)n1 [Example 196, (R)-7-((4-(2-fluoro-6-(methylcarbamoyl)pyridin-3-yl)-3-methylpiperazin-1-yl)methyl)-3-6-difluoropyrazolo[1,5-a]quinoxalin-4(5H)-one]	7.81	
CNC(=O)c1ccc(N2CCN(Cc3ccc4c([nH]c(=O)c5c(C(C)C)cnn54)c3F)CC2)c(F)n1 [Example 203, 7-((4-(2-fluoro-6-(methylcarbamoyl)pyridin-3-yl)piperazin-1-yl)methyl)-3-isopropyl-6-fluoropyrazolo[1,5-a]quinoxalin-4(5H)-one]	< 7.00	
